{"source": "patent US10457691B2", "about": "“Macrocyclic kinase inhibitors and uses thereof” (Dana-Farber Cancer Institute, Inc., priority 2014, dated 2019)", "format_in_all_cases": "biochemical", "conditions_in_all_cases": "read-out: Activity of the protein kinase when treated with compound I-1 (% control)", "key": {"RSK2": {"biological_target": "RSK2 (Homo sapiens, UniProt P51812)", "experiment": "Protein kinase assay ([γ-32P] ATP), RSK2", "method": "(§1) In another set of experiments, the activities of the compounds described herein against various protein kinases were determined according to the methods reported in Hastie et al., Nature Protocols, 2006, 1, 968-971.\n(§2) Enzyme dilution buffer. This buffer consisted of 50 mM Tris-HCl, pH 7.5, 0.1 mM EGTA, 1 mg ml^−1 bovine serum albumin and 0.1% (vol/vol) 2-mercaptoethanol.\n(§3) 10× concentrated assay buffer. An assay buffer of 500 mM Tris-HCl, pH 7.5, 1 mM EGTA, and 100 mM magnesium acetate was used for assay of a wide variety of protein kinases. In some experiments, other cofactors were included (e.g., calcium ions and calmodulin were included for assay of calcium-calmodulindependent protein kinases).\n(§4) 1 mM [γ-^32P] ATP. The specific activity of the [γ-^32P] ATP solution was 1×10^5 to 1×10^6 c.p.m. per nmol depending on what was needed to produce an optimal signal/noise ratio. […] To measure the concentration of ATP, a sample of such a stock solution was diluted to 20 μM, and the absorbance of the diluted sample was measured at 259 nm. The absorbance of a 20-μM stock solution of ATP at 259 nm was about 0.31. […] ATP to produce a radioactivity of 1×10^5 to 1×10^6 c.p.m. per nmol. […]\n(§5) 13) Measure radioactivity in the samples by Cerenkov counting (e.g., without liquid scintillation fluid) in a liquid scintillation counter using a “^32P program”. […]"}, "MEKK1": {"biological_target": "MEKK1 (Homo sapiens, UniProt Q13233)", "experiment": "Protein kinase assay ([γ-32P] ATP), MEKK1", "method": "as §1, §2, §3, §4, §5"}, "PKD1": {"biological_target": "PKD1 (Homo sapiens, UniProt Q15139)", "experiment": "Protein kinase assay ([γ-32P] ATP), PKD1", "method": "as §1, §2, §3, §4, §5"}, "CSK": {"biological_target": "CSK (Homo sapiens, UniProt P41240)", "sequence (P41240 whole entry)": "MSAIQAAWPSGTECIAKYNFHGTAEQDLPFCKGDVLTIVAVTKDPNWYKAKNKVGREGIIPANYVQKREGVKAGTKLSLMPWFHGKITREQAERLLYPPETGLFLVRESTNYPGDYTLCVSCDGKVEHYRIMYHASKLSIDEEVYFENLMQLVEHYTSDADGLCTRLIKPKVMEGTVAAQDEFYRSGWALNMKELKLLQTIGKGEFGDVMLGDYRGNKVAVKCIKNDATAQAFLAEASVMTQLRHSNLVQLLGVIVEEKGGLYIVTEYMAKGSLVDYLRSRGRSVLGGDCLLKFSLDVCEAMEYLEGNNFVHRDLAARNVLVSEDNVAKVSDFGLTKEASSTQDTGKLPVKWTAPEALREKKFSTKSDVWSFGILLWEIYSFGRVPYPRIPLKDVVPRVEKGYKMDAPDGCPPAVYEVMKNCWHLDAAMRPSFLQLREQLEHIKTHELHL", "experiment": "Protein kinase assay ([γ-32P] ATP), CSK", "method": "as §1, §2, §3, §4, §5"}, "CK1δ": {"biological_target": "CK1δ (Homo sapiens, UniProt P48730)", "experiment": "Protein kinase assay ([γ-32P] ATP), CK1δ", "method": "as §1, §2, §3, §4, §5"}, "TAO1": {"biological_target": "TAO1 (Homo sapiens, UniProt Q7L7X3)", "experiment": "Protein kinase assay ([γ-32P] ATP), TAO1", "method": "as §1, §2, §3, §4, §5"}, "NEK2a": {"biological_target": "NEK2a (Homo sapiens, UniProt P51955)", "sequence (P51955 whole entry)": "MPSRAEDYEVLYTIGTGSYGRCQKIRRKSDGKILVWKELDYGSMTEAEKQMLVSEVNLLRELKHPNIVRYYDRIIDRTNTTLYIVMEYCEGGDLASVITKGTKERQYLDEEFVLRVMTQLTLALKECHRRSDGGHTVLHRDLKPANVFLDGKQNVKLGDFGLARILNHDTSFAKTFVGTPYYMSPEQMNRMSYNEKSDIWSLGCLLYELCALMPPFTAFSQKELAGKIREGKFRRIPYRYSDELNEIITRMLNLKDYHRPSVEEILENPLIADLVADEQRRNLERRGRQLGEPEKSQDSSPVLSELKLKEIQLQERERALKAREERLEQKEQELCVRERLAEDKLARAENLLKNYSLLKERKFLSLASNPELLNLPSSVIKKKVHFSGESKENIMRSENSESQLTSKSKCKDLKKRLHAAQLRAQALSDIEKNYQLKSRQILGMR", "experiment": "Protein kinase assay ([γ-32P] ATP), NEK2a", "method": "as §1, §2, §3, §4, §5"}, "MLK3": {"biological_target": "MLK3 (Homo sapiens, UniProt Q16584)", "sequence (Q16584 whole entry)": "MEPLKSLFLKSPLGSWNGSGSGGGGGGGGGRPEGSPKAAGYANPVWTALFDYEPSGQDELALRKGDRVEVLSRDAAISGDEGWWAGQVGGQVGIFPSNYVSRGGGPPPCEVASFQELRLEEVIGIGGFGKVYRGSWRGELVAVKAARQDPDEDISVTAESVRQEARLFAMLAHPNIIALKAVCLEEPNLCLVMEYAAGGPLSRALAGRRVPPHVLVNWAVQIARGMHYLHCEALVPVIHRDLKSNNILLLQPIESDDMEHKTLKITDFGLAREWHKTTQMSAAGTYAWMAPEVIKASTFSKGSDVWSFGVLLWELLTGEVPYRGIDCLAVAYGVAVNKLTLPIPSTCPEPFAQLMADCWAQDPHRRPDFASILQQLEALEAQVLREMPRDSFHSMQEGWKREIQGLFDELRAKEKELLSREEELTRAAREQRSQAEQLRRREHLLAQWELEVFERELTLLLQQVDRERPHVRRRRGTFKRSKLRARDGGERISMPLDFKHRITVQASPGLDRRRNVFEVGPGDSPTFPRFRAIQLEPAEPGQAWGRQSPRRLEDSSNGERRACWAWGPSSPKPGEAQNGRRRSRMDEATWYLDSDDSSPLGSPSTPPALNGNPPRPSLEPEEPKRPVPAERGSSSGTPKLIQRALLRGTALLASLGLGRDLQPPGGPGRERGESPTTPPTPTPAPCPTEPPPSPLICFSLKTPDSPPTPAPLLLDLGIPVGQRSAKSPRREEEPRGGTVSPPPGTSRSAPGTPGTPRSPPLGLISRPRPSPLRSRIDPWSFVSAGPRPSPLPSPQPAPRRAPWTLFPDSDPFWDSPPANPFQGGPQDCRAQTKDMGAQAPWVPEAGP", "experiment": "Protein kinase assay ([γ-32P] ATP), MLK3", "method": "as §1, §2, §3, §4, §5"}, "ERK2": {"biological_target": "ERK2 (Homo sapiens, UniProt P28482)", "sequence (P28482 whole entry)": "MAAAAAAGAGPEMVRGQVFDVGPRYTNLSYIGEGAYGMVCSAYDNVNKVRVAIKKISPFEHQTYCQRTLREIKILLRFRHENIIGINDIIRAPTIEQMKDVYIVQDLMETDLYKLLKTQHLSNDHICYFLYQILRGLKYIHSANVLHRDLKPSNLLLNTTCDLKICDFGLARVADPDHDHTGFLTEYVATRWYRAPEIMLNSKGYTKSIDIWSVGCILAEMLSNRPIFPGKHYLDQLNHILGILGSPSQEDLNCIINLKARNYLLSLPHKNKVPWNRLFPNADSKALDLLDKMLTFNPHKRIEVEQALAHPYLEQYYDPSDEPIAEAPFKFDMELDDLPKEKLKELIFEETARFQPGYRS", "experiment": "Protein kinase assay ([γ-32P] ATP), ERK2", "method": "as §1, §2, §3, §4, §5"}, "Src": {"biological_target": "Src (Homo sapiens, UniProt P12931)", "experiment": "Protein kinase assay ([γ-32P] ATP), Src", "method": "as §1, §2, §3, §4, §5"}, "p38g MAPK": {"biological_target": "p38g MAPK (Homo sapiens, UniProt P53778)", "sequence (P53778 whole entry)": "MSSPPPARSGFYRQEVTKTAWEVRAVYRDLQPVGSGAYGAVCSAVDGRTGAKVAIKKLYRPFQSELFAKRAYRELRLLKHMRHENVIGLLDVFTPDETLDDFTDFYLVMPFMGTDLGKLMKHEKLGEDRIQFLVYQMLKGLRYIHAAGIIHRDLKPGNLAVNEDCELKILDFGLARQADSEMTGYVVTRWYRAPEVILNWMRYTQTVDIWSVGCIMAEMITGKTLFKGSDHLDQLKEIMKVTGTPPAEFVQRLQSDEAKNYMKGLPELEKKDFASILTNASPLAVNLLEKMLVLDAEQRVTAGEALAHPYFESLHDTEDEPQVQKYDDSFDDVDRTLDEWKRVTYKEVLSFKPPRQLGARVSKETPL", "experiment": "Protein kinase assay ([γ-32P] ATP), p38g MAPK", "method": "as §1, §2, §3, §4, §5"}, "VEG-FR": {"biological_target": "VEG-FR (Homo sapiens, UniProt P17948)", "experiment": "Protein kinase assay ([γ-32P] ATP), VEG-FR", "method": "as §1, §2, §3, §4, §5"}, "MKK1": {"biological_target": "MKK1 (Homo sapiens, UniProt Q02750)", "sequence (Q02750 whole entry)": "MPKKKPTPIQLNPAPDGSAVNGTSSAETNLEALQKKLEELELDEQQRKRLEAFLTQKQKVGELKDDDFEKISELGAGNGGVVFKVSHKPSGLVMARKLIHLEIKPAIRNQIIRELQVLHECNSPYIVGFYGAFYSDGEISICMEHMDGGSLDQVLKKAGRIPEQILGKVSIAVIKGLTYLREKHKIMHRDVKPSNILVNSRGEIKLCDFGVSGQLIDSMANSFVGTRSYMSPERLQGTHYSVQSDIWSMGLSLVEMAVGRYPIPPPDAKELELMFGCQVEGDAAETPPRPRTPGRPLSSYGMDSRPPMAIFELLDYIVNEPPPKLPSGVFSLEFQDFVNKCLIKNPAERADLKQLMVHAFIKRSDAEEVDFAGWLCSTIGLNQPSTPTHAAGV", "experiment": "Protein kinase assay ([γ-32P] ATP), MKK1", "method": "as §1, §2, §3, §4, §5"}, "DYRK1A": {"biological_target": "DYRK1A (Homo sapiens, UniProt Q13627)", "experiment": "Protein kinase assay ([γ-32P] ATP), DYRK1A", "method": "as §1, §2, §3, §4, §5"}, "TTBK1": {"biological_target": "TTBK1 (Homo sapiens, UniProt Q5TCY1)", "sequence (Q5TCY1 whole entry, species assumed)": "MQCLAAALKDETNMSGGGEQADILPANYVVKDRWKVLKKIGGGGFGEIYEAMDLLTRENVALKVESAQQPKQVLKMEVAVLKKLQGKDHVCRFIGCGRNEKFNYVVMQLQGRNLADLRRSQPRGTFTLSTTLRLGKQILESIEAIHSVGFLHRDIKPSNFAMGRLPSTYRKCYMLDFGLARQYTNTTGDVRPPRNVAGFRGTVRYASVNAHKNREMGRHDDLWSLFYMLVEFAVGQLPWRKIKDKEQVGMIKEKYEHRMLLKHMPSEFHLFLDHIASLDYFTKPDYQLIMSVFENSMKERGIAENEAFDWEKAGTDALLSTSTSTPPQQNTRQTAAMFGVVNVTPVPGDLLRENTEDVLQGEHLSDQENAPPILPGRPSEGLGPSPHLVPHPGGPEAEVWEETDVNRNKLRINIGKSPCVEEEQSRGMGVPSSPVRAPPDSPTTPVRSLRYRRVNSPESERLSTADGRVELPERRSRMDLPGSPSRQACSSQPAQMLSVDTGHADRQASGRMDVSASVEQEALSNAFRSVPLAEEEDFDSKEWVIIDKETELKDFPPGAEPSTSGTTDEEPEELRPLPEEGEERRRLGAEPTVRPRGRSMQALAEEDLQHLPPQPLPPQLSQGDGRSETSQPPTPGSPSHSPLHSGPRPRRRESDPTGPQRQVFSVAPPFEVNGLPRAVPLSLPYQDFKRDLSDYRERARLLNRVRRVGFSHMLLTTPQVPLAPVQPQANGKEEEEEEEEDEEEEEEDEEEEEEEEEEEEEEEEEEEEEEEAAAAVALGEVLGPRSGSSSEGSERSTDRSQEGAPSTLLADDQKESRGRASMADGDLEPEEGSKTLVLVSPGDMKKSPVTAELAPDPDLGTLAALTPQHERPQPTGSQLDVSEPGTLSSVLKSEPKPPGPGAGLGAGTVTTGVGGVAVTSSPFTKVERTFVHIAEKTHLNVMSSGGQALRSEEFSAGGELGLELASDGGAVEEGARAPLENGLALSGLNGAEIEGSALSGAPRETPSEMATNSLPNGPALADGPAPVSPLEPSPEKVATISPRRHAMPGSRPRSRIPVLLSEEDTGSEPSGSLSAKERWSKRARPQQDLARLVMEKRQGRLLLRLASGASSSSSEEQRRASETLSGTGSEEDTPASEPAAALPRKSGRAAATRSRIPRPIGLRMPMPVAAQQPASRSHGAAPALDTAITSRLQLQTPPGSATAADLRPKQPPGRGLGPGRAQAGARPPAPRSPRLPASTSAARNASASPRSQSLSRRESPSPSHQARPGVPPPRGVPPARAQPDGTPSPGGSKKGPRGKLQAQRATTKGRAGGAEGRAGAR", "experiment": "Protein kinase assay ([γ-32P] ATP), TTBK1", "method": "as §1, §2, §3, §4, §5"}, "NUAK1": {"biological_target": "NUAK1 (Homo sapiens, UniProt O60285)", "sequence (O60285 whole entry)": "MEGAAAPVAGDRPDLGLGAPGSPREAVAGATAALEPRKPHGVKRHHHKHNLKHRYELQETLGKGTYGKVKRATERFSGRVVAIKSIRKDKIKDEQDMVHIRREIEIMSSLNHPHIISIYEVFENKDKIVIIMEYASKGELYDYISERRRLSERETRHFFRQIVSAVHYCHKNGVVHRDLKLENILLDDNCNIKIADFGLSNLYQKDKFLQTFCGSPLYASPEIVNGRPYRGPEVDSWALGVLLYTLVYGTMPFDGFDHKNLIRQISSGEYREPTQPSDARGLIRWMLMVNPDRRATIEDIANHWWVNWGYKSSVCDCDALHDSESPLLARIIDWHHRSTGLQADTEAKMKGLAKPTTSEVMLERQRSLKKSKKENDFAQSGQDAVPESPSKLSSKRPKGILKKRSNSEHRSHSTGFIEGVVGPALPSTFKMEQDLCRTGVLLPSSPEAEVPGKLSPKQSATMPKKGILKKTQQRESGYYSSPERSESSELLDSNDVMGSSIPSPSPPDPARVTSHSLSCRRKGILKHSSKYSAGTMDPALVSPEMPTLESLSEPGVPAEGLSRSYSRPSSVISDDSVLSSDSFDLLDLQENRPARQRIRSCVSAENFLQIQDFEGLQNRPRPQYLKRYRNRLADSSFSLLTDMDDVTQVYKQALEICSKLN", "experiment": "Protein kinase assay ([γ-32P] ATP), NUAK1", "method": "as §1, §2, §3, §4, §5"}, "CDK2-Cyclin A": {"biological_target": "CDK2-Cyclin A (Homo sapiens, UniProt P24941)", "experiment": "Protein kinase assay ([γ-32P] ATP), CDK2-Cyclin A", "method": "as §1, §2, §3, §4, §5"}, "[1]": {"conditions": "0.1 μM of compound I-1, DMSO control = 100%"}, "[2]": {"conditions": "1 μM of compound I-1, DMSO control = 100%"}}, "data": [{"compound": "Cc1cccc(C)c1NC(=O)N1C/C=C\\COc2cccc(c2)Nc2cc1ncn2", "note": "[Compound I-1]", "values": [{"measurement": "remaining activity at 0.1 µM", "setting": "RSK2; [1]", "result": 98, "unit": "%"}, {"measurement": "remaining activity at 1 µM", "setting": "RSK2; [2]", "result": 81, "unit": "%"}, {"measurement": "remaining activity at 0.1 µM", "setting": "MEKK1; [1]", "result": 96, "unit": "%"}, {"measurement": "remaining activity at 1 µM", "setting": "MEKK1; [2]", "result": 95, "unit": "%"}, {"measurement": "remaining activity at 0.1 µM", "setting": "PKD1; [1]", "result": 63, "unit": "%"}, {"measurement": "remaining activity at 1 µM", "setting": "PKD1; [2]", "result": 29, "unit": "%"}, {"measurement": "remaining activity at 0.1 µM", "setting": "CSK; [1]", "result": 101, "unit": "%"}, {"measurement": "remaining activity at 1 µM", "setting": "CSK; [2]", "result": 10, "unit": "%"}, {"measurement": "remaining activity at 0.1 µM", "setting": "CK1δ; [1]", "result": 97, "unit": "%"}, {"measurement": "remaining activity at 1 µM", "setting": "CK1δ; [2]", "result": 99, "unit": "%"}, {"measurement": "remaining activity at 0.1 µM", "setting": "TAO1; [1]", "result": 72, "unit": "%"}, {"measurement": "remaining activity at 1 µM", "setting": "TAO1; [2]", "result": 34, "unit": "%"}, {"measurement": "remaining activity at 0.1 µM", "setting": "NEK2a; [1]", "result": 97, "unit": "%"}, {"measurement": "remaining activity at 1 µM", "setting": "NEK2a; [2]", "result": 85, "unit": "%"}, {"measurement": "remaining activity at 0.1 µM", "setting": "MLK3; [1]", "result": 94, "unit": "%"}, {"measurement": "remaining activity at 1 µM", "setting": "MLK3; [2]", "result": 39, "unit": "%"}, {"measurement": "remaining activity at 0.1 µM", "setting": "ERK2; [1]", "result": 104, "unit": "%"}, {"measurement": "remaining activity at 1 µM", "setting": "ERK2; [2]", "result": 80, "unit": "%"}, {"measurement": "remaining activity at 0.1 µM", "setting": "Src; [1]", "result": 25, "unit": "%"}, {"measurement": "remaining activity at 1 µM", "setting": "Src; [2]", "result": 24, "unit": "%"}, {"measurement": "remaining activity at 0.1 µM", "setting": "p38g MAPK; [1]", "result": 101, "unit": "%"}, {"measurement": "remaining activity at 1 µM", "setting": "p38g MAPK; [2]", "result": 88, "unit": "%"}, {"measurement": "remaining activity at 0.1 µM", "setting": "VEG-FR; [1]", "result": 49, "unit": "%"}, {"measurement": "remaining activity at 1 µM", "setting": "VEG-FR; [2]", "result": 7, "unit": "%"}, {"measurement": "remaining activity at 0.1 µM", "setting": "MKK1; [1]", "result": 96, "unit": "%"}, {"measurement": "remaining activity at 1 µM", "setting": "MKK1; [2]", "result": 81, "unit": "%"}, {"measurement": "remaining activity at 0.1 µM", "setting": "DYRK1A; [1]", "result": 104, "unit": "%"}, {"measurement": "remaining activity at 1 µM", "setting": "DYRK1A; [2]", "result": 86, "unit": "%"}, {"measurement": "remaining activity at 0.1 µM", "setting": "TTBK1; [1]", "result": 115, "unit": "%"}, {"measurement": "remaining activity at 1 µM", "setting": "TTBK1; [2]", "result": 80, "unit": "%"}, {"measurement": "remaining activity at 0.1 µM", "setting": "NUAK1; [1]", "result": 100, "unit": "%"}, {"measurement": "remaining activity at 1 µM", "setting": "NUAK1; [2]", "result": 93, "unit": "%"}, {"measurement": "remaining activity at 0.1 µM", "setting": "CDK2-Cyclin A; [1]", "result": 107, "unit": "%"}, {"measurement": "remaining activity at 1 µM", "setting": "CDK2-Cyclin A; [2]", "result": 84, "unit": "%"}]}]}
